Key:
Assay in all cases: relative viability (nuclei count vs DMSO), 5 days (fraction); higher = more cells survive
[1] = compound: O[C@@H](COc1cccc2ncccc12)CN1CCN([C@@H]2c3ccccc3[C@@H]3[C@H](c4ccccc42)C3(F)F)CC1 [Zosuquidar] + O=C(c1cc(Cc2n[nH]c(=O)c3ccccc23)ccc1F)N1CCN(C(=O)C2CC2)CC1 [Olaparib] (partner 8 µM)
Procedure, shortened: (§1)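 Relative viability equals treated-well nuclei counts divided by vehicle-well nuclei counts. Counts came from 4× images of lung cancer cell lines grown in 1536-well plates for 5 days after pin-tool dosing on the day after seeding. Dosing used one drug alone or a fixed anchor-drug dose plus five library-drug doses (not always all listed) in √10 steps, and values are medians of duplicate plates.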

[2] = compound: O[C@@H](COc1cccc2ncccc12)CN1CCN([C@@H]2c3ccccc3[C@@H]3[C@H](c4ccccc42)C3(F)F)CC1 [Zosuquidar] + N=C(N)NC(=N)NCCc1ccccc1 [Phenformin] (partner 250 µM)
Procedure, shortened: as §1

[3] = compound: COc1cc2nccc(Oc3ccc(NC(=O)C4(C(=O)Nc5ccc(F)cc5)CC4)cc3)c2cc1OC [Cabozantinib] + CS(=O)(=O)CCNCc1ccc(-c2ccc3ncnc(Nc4ccc(OCc5cccc(F)c5)c(Cl)c4)c3c2)o1 [Lapatinib] (partner 2 µM)
Procedure, shortened: as §1

[4] = compound: C1=CC(=CC=C1NC(=S)NNC2=C(C=C(C=C2[N+](=O)[O-])C(F)(F)F)[N+](=O)[O-])F [Kobe2602] + N=C(N)NC(=N)NCCc1ccccc1 [Phenformin] (partner 250 µM)
Procedure, shortened: as §1

Row | Cell Line | relative viability ([1]; first compound 0.01 µM) | relative viability ([1]; first compound 0.03162 µM) | relative viability ([1]; first compound 0.1 µM) | relative viability ([1]; first compound 0.3162 µM) | relative viability ([1]; first compound 1 µM) | relative viability ([2]; first compound 0.01 µM) | relative viability ([2]; first compound 0.03162 µM) | relative viability ([2]; first compound 0.1 µM) | relative viability ([2]; first compound 0.3162 µM) | relative viability ([2]; first compound 1 µM) | relative viability ([3]; first compound 0.02 µM) | relative viability ([3]; first compound 0.06325 µM) | relative viability ([3]; first compound 0.2 µM) | relative viability ([3]; first compound 0.6325 µM) | relative viability ([3]; first compound 2 µM) | relative viability ([4]; first compound 0.2 µM) | relative viability ([4]; first compound 0.6325 µM) | relative viability ([4]; first compound 2 µM) | relative viability ([4]; first compound 6.325 µM) | relative viability ([4]; first compound 20 µM)
1 | COR-L23 | 0.363 | 0.38 | 0.333 | 0.355 | 0.37 | 0.422 | 0.413 | 0.416 | 0.514 | 0.453 | 1.04 | 1.14 | 0.947 | 1.12 | 0.878 | 0.469 | 0.453 | 0.427 | 0.463 | 0.422
2 | COR-L 105 | 0.641 | 0.711 | 0.662 | 0.761 | 0.582 | 0.547 | 0.404 | 0.409 | 0.478 | 0.437 | 0.321 | 0.341 | – | 0.352 | 0.372 | 0.487 | 0.491 | 0.422 | 0.542 | 0.494
3 | EKVX | 0.854 | 0.833 | – | 0.913 | 0.847 | 0.231 | 0.252 | 0.189 | 0.243 | 0.227 | 0.172 | 0.207 | 0.203 | 0.21 | 0.191 | 0.27 | 0.237 | 0.22 | 0.233 | 0.248
4 | EMC-BAC-2 | 0.467 | 0.487 | 0.529 | 0.535 | 0.482 | 0.523 | 0.541 | 0.517 | 0.602 | 0.537 | 0.841 | 0.927 | 0.88 | 0.879 | 0.973 | 0.575 | 0.591 | 0.508 | 0.538 | 0.553
5 | EPLC-272H | 0.755 | 0.912 | 0.909 | 0.96 | 0.745 | 0.344 | 0.288 | 0.287 | 0.241 | 0.301 | 0.899 | 1.22 | 0.877 | 0.97 | 0.701 | 0.313 | 0.32 | 0.31 | 0.323 | 0.294
6 | H3255 | 0.549 | 0.559 | 0.558 | 0.553 | 0.541 | 0.34 | 0.373 | 0.326 | 0.38 | 0.36 | 0.182 | 0.234 | – | 0.366 | 0.217 | 0.339 | 0.359 | 0.422 | 0.315 | 0.334
7 | HARA | 1.13 | 0.804 | 0.905 | 0.936 | 0.93 | 0.408 | – | 0.489 | 0.41 | 0.451 | 0.582 | 0.806 | 0.856 | 0.809 | 0.639 | 0.468 | 0.506 | 0.465 | 0.467 | 0.478
8 | HCC-15 | 0.717 | 0.725 | 0.799 | 0.72 | 0.747 | 0.44 | 0.441 | 0.436 | 0.497 | 0.504 | 0.85 | 0.879 | 0.783 | 0.843 | 0.965 | 0.482 | 0.494 | 0.443 | 0.43 | 0.363
9 | HCC-44 | 1.01 | 1.02 | 1.02 | 0.961 | 0.934 | 0.259 | 0.191 | 0.161 | 0.336 | 0.209 | 1.09 | 1.12 | 1 | 1.11 | 1.04 | 0.207 | 0.21 | 0.249 | 0.239 | 0.322
10 | HCC-78 | 0.939 | – | – | 0.862 | 0.846 | 0.801 | 0.71 | – | 0.707 | 0.558 | 0.458 | 0.922 | 0.348 | 0.305 | 0.286 | 0.693 | 0.699 | 0.736 | 0.727 | 0.9
11 | HCC-366 | 0.314 | 0.377 | 0.415 | 0.324 | 0.324 | 0.61 | 0.674 | 0.623 | 0.718 | 0.575 | 1.08 | 1.07 | 1.05 | 1.13 | 0.957 | 0.669 | 0.642 | 0.618 | 0.584 | 0.61
12 | HCC-827 | 0.688 | 0.567 | 0.518 | 0.65 | 0.622 | 0.351 | 0.467 | 0.333 | 0.413 | 0.398 | 0.19 | 0.233 | – | 0.183 | 0.179 | 0.428 | 0.441 | 0.464 | 0.364 | 0.413
13 | HOP-62 | 0.461 | 0.548 | 0.485 | 0.665 | 0.384 | 0.7 | 0.637 | 0.688 | 0.719 | 0.684 | 1.05 | 1.3 | 1.19 | 1.2 | 1.14 | 0.644 | 0.693 | 0.66 | 0.698 | 0.603
14 | LC-2-ad | 0.689 | 0.67 | 0.693 | 0.716 | 0.719 | 0.584 | 0.561 | 0.576 | 0.626 | 0.55 | 0.938 | 1.04 | 0.876 | 0.622 | 0.253 | 0.567 | 0.618 | 0.512 | 0.586 | 0.55
15 | LCLC-97TM1 | 0.307 | 0.453 | – | 0.335 | 0.515 | 0.409 | 0.442 | 0.46 | 0.454 | 0.445 | – | 1.21 | 0.927 | 1.13 | 1.09 | 0.44 | 0.428 | 0.434 | 0.39 | 0.42
